From patent publication US20040254170A1, “Method of treating functional bowel disorders” (Dynogen, Inc., priority 2003, published 2004)
Where “and” joins values, the source holds several entries; their conditions need not be identical. Equal entries are not always repeated. Where two headings read alike, the source gives them in different places.

Legend:
[1] = system: acetic acid sensitized male Fisher rats; assay: Visceromotor response to colorectal distension, acetic acid-induced colonic hypersensitivity; format: in vivo, rat; details: for visceromotor response (number of abdominal contractions) to CRD compared to vehicle: all doses i.p. (ondansetron 1, 5, 10 mg/kg; nisoxetine 3, 10, 30 mg/kg), all distension pressures
Procedure: The visceromotor behavioral response to colorectal distension was measured by counting the number of abdominal contractions recorded by a strain gauge sutured onto the abdominal musculature as described in Gunter et al., Physiol. […] A 5 cm latex balloon catheter inserted via the anal canal into the colon was used for colorectal distensions. Constant pressure tonic distensions were performed in a graded manner (15, 30 or 60 mmHg) and were maintained for a period of 10 min and the numbers of abdominal muscle contractions were recorded to measure the level of colonic sensation. A 10 min recovery was allowed between distensions.
J. Physiol. […] In the present study, a low concentration of acetic acid (1.5 ml, 0.6%) was administered intracolonically to sensitize the colon without causing histological damage to the colonic mucosa as described in previous studies (Gunter et al., supra).
Injection volume was 0.2 mL using 100% propylene glycol as the vehicle. Three consecutive colorectal distensions at 15, 30 or 60 mmHg applied at 10-min intervals were recorded. Visceromotor responses were evaluated as the number of abdominal muscle contractions recorded during the 10-min periods of colorectal distension.
Adult male rats were used in the study. […] Specifically, rats were anesthetized with Isoflurane (2%) and were instrumented with a strain gauge force transducer for recording of abdominal muscle contractions. A latex balloon and catheter were inserted 11 cm into the colon. The animals were allowed a 30-min period to completely recover from the anesthesia and were then subjected to intracolonic infusion of acetic acid (1.5 mL, 0.6%). An additional 30-min period was allowed for sensitization of the colon. […] The protocol for colorectal distension was initiated 30-min post drug administration. After a basal reading of the number of abdominal contractions with the balloon inserted but not distended, three consecutive 10-min lasting colorectal distensions at 15, 30, and 60 mmHg were applied at 10-min intervals. Colorectal sensitivity was evaluated by counting the number of reflex abdominal contractions (i.e. the visceromotor response) observed within each distension period.
Acetic acid-induced colonic hypersensitivity in rats has been described by Langlois et al. and Plourde et al., referenced above.
The visceromotor behavioral response to colorectal distension was measured by counting the number of abdominal contractions recorded by a strain gauge sutured onto the abdominal musculature as previously described Gunter et al., referenced above. Colorectal distensions were carried out utilizing a 5 cm latex balloon catheter inserted into the colon via the anal canal. Constant pressure tonic distensions were performed in a graded manner, i.e., the pressure was increased to the desired level of 15, 30, or 60 mmHg and then maintained for a period of 10 minutes during which the number of abdominal contractions were recorded to measure the level of colonic sensation. Ten minute recovery periods were allowed following each distension.

[2] = system: male F-344 rats subjected to water avoidance stress; assay: Water Avoidance Stress (WAS) model, fecal pellet output; format: in vivo, rat; details: for number of fecal pellets produced during 1 hour of WAS compared to vehicle: all doses i.p. (MCI-225, nisoxetine 3, 10, 30 mg/kg; ondansetron 1, 5, 10 mg/kg)
Text: The model used in this example provided a method of determining the ability of MCI-225 to normalize accelerated colonic transit induced by water avoidance stress (WAS). […] The model provides a method of evaluating the effectiveness of a compound in a specific patient group of IBS sufferers where stress induced colonic motility is considered a significant contributing factor. All rats underwent sham stress (1-hour in stress chamber without water) for 2-4 consecutive days before undergoing WAS (sham was performed until rats produced 0-1 pellet per hour for 2 consecutive days). At the end of the 1-hour stress period, the fecal pellets were counted and recorded. WAS causes an acceleration of colonic transit, which can be quantified by counting the number of fecal pellets, produced during the stress procedure. Rats were placed for 1-hour into a stress chamber onto a raised platform 7.5 cm×7.5 cm×9 cm (L×W×H) in the center of a stress chamber filled with room temperature water 8 cm in depth. The stress chamber was constructed from a rectangular plastic tub (40.2×60.2×31.2 cm). […] Ondansetron was supplied from APIN Chemicals LTD. […] MCI-225 was provided by Mitsubishi Pharma Corp. All drugs were dissolved in a vehicle of 100% propylene glycol (1,2-propanediol) by sonicating for a period of 10 minutes. Propylene glycol was obtained from Sigma Chemical Co. […] All drugs and the vehicle were administered as an i.p. injection in a volume of 0.2 mL.

male F-344 rats = assay: Small Intestinal Transit (SIT) Rodent Model, charcoal meal; format: in vivo, rat; details: for Small intestinal transit, Mean (% of total small intestinal length): 15 min after charcoal meal
Text: Specifically, the effects of MCI-225, the reference compounds (ondansetron and nisoxetine) and the vehicle on small intestinal transit were investigated in rats under control conditions. Following an overnight fast, rats were brought to the laboratory in their home cages and received an i.p. injection of one of the following: MCI-225, 100% propylene glycol (vehicle), ondansetron, nisoxetine and a combination of ondansetron and nisoxetine. Control rats received no treatment. The treated rats were placed back in the home cages and after 30 min, were fed a 2 mL charcoal meal via an oral gavage. Small intestinal transit was measured following 15 min test-period. Each rat was placed briefly in a glass chamber with IsoFlo for anesthesia and sacrificed. The stomach and the small intestine were removed and the total length of the small intestine was measured. Transit was then measured as the distance that the charcoal meal had traveled along the small intestine and expressed as % of the total length. Animals were randomly assigned to experimental groups and experiments were performed as illustrated in Table 3.
Small intestinal transit in rats was investigated by the passage of a charcoal meal along the small intestine during a defined time period (15-min). The animals were deprived of food for 12-16 hrs prior to the experiments. Rats were given a charcoal meal (a mixture of charcoal, gum arabic, and distilled water) as a 2 mL oral gavage and were sacrificed after a 15-min test period. The distance traveled by the charcoal meal was quantified as a percent of the small intestinal length, using the following equation:
Transit (%)=cm traveled by meal/cm total small intestinal length×100
Small intestinal transit was evaluated in relative units (%) of the total intestinal length in the following groups receiving different drug treatment: naïve (untreated), vehicle (propylene glycol, 200 μL i.p.), MCI-225 (3, 10 and 30 mg/kg, i.p.), nisoxetine (3, 10 and 30 mg/kg, i.p.), ondansetron (1, 5 and 10 mg/kg, i.p.) and a combination of nisoxetine (10 mg/kg, i.p.) and ondansetron (5 mg/kg, i.p.). A total of 61 experiments were performed (4-6 rats per group).

[3] = target: T1, noradrenaline transporter ([^3H]NA uptake) (Rattus norvegicus, UniProt Q9WTR4); details: read-out: Ki, inhibition of [3H]NA uptake, cited from earlier work
T1 construct: The [^3H]NA uptake assays are performed on the cortical and hypothalamic synaptosomes; from tissue; host or cells: rat hypothalamic and cortical synaptosomes (P2 fraction)
T1 sequence (Q9WTR4 1-597): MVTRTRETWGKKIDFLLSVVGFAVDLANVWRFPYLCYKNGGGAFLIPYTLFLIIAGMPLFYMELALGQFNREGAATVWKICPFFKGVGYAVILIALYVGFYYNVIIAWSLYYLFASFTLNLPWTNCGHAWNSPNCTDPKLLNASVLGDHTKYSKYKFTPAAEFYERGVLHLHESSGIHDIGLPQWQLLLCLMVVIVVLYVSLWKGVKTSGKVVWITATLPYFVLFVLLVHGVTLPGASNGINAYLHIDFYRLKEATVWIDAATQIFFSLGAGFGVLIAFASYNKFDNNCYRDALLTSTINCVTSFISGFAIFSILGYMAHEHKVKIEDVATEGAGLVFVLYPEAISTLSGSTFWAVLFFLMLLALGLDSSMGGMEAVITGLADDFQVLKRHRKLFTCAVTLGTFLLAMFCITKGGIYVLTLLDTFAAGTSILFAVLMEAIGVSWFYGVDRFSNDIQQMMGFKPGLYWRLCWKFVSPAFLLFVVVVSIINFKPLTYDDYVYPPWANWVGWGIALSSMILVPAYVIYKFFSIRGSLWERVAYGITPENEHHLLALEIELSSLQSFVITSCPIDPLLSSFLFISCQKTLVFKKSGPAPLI

[4] = target: T2, serotonin reuptake ([^3H]5-HT uptake) (Rattus norvegicus, UniProt P31652); details: cited from earlier work
T2 construct: The [^3H]5-HT uptake assays are performed on the cortical, hypothalamic and hippocampal synaptosomes; from tissue; host or cells: rat hypothalamic, cortical and hippocampal synaptosomes (P2 fraction)
T2 sequence (P31652 whole entry): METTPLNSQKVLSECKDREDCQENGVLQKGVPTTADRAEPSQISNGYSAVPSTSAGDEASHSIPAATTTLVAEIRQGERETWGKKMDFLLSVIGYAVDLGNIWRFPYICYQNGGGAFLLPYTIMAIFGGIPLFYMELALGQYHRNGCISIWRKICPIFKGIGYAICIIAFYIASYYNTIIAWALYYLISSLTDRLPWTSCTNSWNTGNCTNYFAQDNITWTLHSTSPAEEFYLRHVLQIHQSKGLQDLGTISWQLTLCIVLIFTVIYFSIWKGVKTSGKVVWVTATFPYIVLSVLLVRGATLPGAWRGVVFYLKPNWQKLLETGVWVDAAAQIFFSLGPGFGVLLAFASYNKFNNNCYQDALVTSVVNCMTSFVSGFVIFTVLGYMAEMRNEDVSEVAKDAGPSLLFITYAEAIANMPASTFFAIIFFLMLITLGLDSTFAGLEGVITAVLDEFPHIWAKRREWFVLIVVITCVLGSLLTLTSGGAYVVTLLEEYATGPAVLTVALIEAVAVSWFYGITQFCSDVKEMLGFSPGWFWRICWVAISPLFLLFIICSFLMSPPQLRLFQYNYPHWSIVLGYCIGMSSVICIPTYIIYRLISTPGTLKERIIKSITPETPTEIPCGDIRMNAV

[5] = target: T3, dopamine reuptake ([^3H]DA uptake) (Rattus norvegicus, UniProt P23977); details: synaptosomes from rat striatal tissue; read-out: Ki, inhibition of [3H]DA uptake; cited from earlier work
T3 construct: the [^3H]DA uptake assays are performed on striatal synaptosomes; from tissue; host or cells: rat striatal synaptosomes (P2 fraction)
T3 sequence (P23977 whole entry): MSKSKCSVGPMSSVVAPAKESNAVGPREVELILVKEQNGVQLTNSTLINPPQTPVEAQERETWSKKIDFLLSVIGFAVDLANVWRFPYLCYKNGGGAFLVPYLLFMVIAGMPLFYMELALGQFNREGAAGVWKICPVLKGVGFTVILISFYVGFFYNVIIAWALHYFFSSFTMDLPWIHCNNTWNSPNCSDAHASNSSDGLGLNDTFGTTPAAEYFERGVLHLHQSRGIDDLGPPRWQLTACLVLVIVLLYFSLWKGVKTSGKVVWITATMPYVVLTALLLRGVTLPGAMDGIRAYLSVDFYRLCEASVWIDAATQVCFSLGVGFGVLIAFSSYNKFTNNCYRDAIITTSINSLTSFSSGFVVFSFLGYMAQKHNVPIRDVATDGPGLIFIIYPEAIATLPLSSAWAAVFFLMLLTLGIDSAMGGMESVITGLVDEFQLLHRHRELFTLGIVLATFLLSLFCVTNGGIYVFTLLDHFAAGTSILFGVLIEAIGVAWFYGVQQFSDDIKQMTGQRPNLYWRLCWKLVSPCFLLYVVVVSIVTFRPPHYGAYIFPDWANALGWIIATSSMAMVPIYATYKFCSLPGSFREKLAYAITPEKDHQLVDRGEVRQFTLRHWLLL

5-HT3 receptor = target: T4, 5-HT3 receptor (Mus musculus, UniProt P23979); details: radioligand binding; read-out: Ki, affinity for the 5-HT3 receptor; cited from earlier work
T4 construct: host or cells: N1E-115 mouse neuroblastoma cells
T4 sequence (P23979 24-489): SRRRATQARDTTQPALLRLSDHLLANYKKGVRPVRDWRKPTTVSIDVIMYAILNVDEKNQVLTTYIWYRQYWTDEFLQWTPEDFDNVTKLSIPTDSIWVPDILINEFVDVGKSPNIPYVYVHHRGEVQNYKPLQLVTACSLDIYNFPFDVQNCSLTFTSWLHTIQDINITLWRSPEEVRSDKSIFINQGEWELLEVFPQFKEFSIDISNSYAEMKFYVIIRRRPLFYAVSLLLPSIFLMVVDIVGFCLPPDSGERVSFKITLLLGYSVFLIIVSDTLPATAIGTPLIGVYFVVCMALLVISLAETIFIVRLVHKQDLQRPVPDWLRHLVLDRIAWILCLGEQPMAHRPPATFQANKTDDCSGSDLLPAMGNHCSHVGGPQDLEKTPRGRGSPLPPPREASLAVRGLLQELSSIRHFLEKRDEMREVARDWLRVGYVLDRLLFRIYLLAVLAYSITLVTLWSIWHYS

Question: With `CNCCC(Oc1ccccc1OC)c1ccccc1` (stereo not drawn) [Nisoxetine] as the compound, how does the “behavior in the home cage during the experiments” value ([1]; Example 2, 30 mg/kg i.p.) read?
Answer: increased exploratory behavior

Question: What about the “visceromotor response (number of abdominal contractions) to CRD compared to vehicle” value ([1]; Example 2) of the same compound?
Answer: no significant effect

Question: What about the “number of fecal pellets produced during WAS compared to vehicle” value ([2]; 10 and 30 mg/kg i.p.) of the same compound?
Answer: significantly fewer

Question: What about the “number of fecal pellets produced during 1 hour of WAS compared to vehicle” value [2] of the same compound?
Answer: reduced by all doses

Question: And the “Small intestinal transit, Mean (% of total small intestinal length)” value (male F-344 rats; 3 mg/kg i.p.)?
Answer: 40.3%

Question: And the “Small intestinal transit, Mean (% of total small intestinal length)” value (male F-344 rats; 10 mg/kg i.p.)?
Answer: 38.6%

Question: And the “animals with charcoal meal completely retained in the stomach” value (male F-344 rats; 30 mg/kg i.p.)?
Answer: 4 out of 5

Question: What about the small intestinal transit (male F-344 rats; 30 mg/kg i.p.) of the same compound?
Answer: almost completely inhibited

Question: What about the “Small intestinal transit, Mean (% of total small intestinal length)” value (male F-344 rats; 30 mg/kg i.p.) of the same compound?
Answer: 4.7%

Question: What about the small intestinal transit (male F-344 rats; 3 or 10 mg/kg i.p.) of the same compound?
Answer: tendency to decrease

Question: Which “animals in which the visceromotor response to CRD was eliminated” value ([1]; Example 1, 30 mg/kg i.p., n=6, CRD 15, 30, 60 mmHg) does the source give for `Cc1cc2c(-c3ccccc3F)nc(N3CCNCC3)nc2s1` [MCI-225, 4-(2-fluorophenyl)-6-methyl-2-(1-piperazinyl)thieno[2,3-d]pyrimidine] here?
Answer: 50%

Question: What about the “Small intestinal transit, Mean (% of total small intestinal length)” value (male F-344 rats; 3 mg/kg i.p.) of the same compound?
Answer: 30.1%

Question: And the “Small intestinal transit, Mean (% of total small intestinal length)” value (male F-344 rats; 10 mg/kg i.p.)?
Answer: 4.2±2.6% and 4.2%

Question: And the “Small intestinal transit, Mean (% of total small intestinal length)” value (male F-344 rats; 30 mg/kg i.p.)?
Answer: 8.8%

Question: And the Ki ([3]; synaptosomes from rat cortical tissue)?
Answer: 0.696 nM

Question: What about the Ki ([3]; synaptosomes from rat hypothalamic tissue) of the same compound?
Answer: 35 nM

Question: What about the Ki ([4]; synaptosomes from rat cortical tissue, read-out: Ki, inhibition of [3H]5-HT uptake) of the same compound?
Answer: 1070 nM

Question: What about the Ki ([4]; synaptosomes from rat hippocampal tissue, read-out: Ki, inhibition of serotonin uptake) of the same compound?
Answer: 244 nM

Question: And the Ki ([4]; synaptosomes from rat hypothalamic tissue, read-out: Ki, inhibition of [3H]5-HT uptake)?
Answer: 491 nM

Question: What about the Ki [5] of the same compound?
Answer: 14800 nM

Question: And the Ki (5-HT3 receptor)?
Answer: < 100 nM

Question: Which “visceromotor response (number of abdominal contractions) to CRD compared to vehicle” value ([1]; Example 2) does the source give for `Cc1nccn1CC1CCc2c(c3ccccc3n2C)C1=O` (stereo not drawn) [Ondansetron] here?
Answer: significant dose-dependent inhibition

Question: What about the “changes in behavioral activity of the rats” value ([1]; Example 2, following treatment 1, 5 or 10 mg/kg i.p.) of the same compound?
Answer: No significant changes

Question: And the “responses to moderate and high intraluminal pressure” value ([1]; Example 2, highest dose 10 mg/kg i.p., 30 and 60 mmHg, responses not abolished)?
Answer: reduced these responses to levels characteristic for naïve non-sensitized rats

Question: What about the “number of fecal pellets produced during 1 hour of WAS compared to vehicle” value [2] of the same compound?
Answer: significantly less

Question: What about the “Small intestinal transit, Mean (% of total small intestinal length)” value (male F-344 rats; 1 mg/kg i.p.) of the same compound?
Answer: 27.6%

Question: What about the “Small intestinal transit, Mean (% of total small intestinal length)” value (male F-344 rats; 5 mg/kg i.p.) of the same compound?
Answer: 32.1%

Question: What about the “Small intestinal transit, Mean (% of total small intestinal length)” value (male F-344 rats; 10 mg/kg i.p.) of the same compound?
Answer: 18.4%%

Question: What about the “small intestinal transit compared to vehicle” value (male F-344 rats; across doses i.p. (MCI-225 3, 10, 30 mg/kg; ondansetron 1, 5, 10 mg/kg)) of the same compound?
Answer: significant reduction

Question: What about the “advance of the charcoal meal from the stomach into the small intestine” value (male F-344 rats; doses tested i.p.) of the same compound?
Answer: a portion of the charcoal meal was always found to advance
